Test results as given in patent US20250387363A1, “LIQUID EPINEPHRINE PRODRUG FORMULATIONS AND LIQUID EPINEPHRINE FORMULATIONS” (Insignis Therapeutics, Inc., priority 2024, published 2025).

Tests used:
[1] = test system: healthy adult human volunteers; test: Cross study pharmacodynamic response comparison (SBP, DBP, PR change from baseline) vs EpiPen 0.3 mg; format: in vivo; conditions: sublingual liquid dosage form, 10 mg dipivefrin HCl, two hours postdose
[2] = Cross study epinephrine PK comparison, L-dipivefrin HCl formulations vs EpiPen 0.3 mg; format: in vivo, human; conditions: oral formulations administered sublingually; Table 10.1
Description: FIG. 5. […] Study period I and study period II refer to the two test periods described in example 7 which are separated by a 1 week washout period.

[3] = rabbits; cited from earlier work

Compound	Median SBP (Systolic Blood Pressure) change from baseline response compared to EpiPen 0.3 mg injection ([1]; FIG. 6)	Median DBP (Diastolic Blood Pressure) change from baseline response compared to EpiPen 0.3 mg injection ([1]; FIG. 7)	Median PR (Pulse Rate) change from baseline response compared to EpiPen 0.3 mg injection ([1]; FIG. 8)	PD response (SBP, DBP and PR change from baseline) compared to EpiPen 0.3 mg injection ([1]; FIGS. 6-8)	Epinephrine exposures compared to Epipen 0.3 mg [2]	Sublingual dose giving systemic absorption equivalent to IM epinephrine [3] [mg]
CNC[C@H](O)c1ccc(OC(=O)C(C)(C)C)c(OC(=O)C(C)(C)C)c1.Cl [L-dipivefrin HCl, L-dipivefrin hydrochloride]	greater	greater	comparable or greater	comparable or greater	comparable	–
CNC[C@H](O)c1ccc(O)c(O)c1 [epinephrine, 4-[(1R)-1-hydroxy-2-(methylamino)ethyl]benzene-1,2-diol]	–	–	–	–	–	40
